Results: patent publication US20250327043A1, “ALCOHOL ACYLTRANSFERASE AND A […], TISSUE, AND ORGANISM COMPRISING SAME” (YEDA RESEARCH AND DEVELOPMENT CO. LTD., priority 2022, published 2025)
“Also recorded” adds a separate entry of the source.

B1: HuAAT5: BAHD alcohol acyltransferase from Helichrysum umbraculigerum, recombinantly expressed in E. coli, SEQ ID NO: 19 (protein, listed as Helichrysum umbraculigerum)
chain: MPSSSSSPSSTADSVTIISKCTVYPHMKNSTPESLQLSVSDLPMLSCQYIQKGVLLSQPPPNHTNNIISHLKLSLSKTLSHFPPLAGRLSTDSHGHVSIICNDSGVEFVHSTANHLHTHQILPLNSDVHPCFKTFFAFDKTLSYAGHHQPIAAVQVTELADGLFIGCTVNHAVVDGTSFWNFFNTFAEITKGCQKVTNLPDFSRENVFISPVVLPLPSGGPSATFSGDEPLRERIIHFSRDAILKMKFRANNPLWRQPQNSDLDDTEIYGKVCNDINGKVNGAFKPKSEISSFQSLCGQLWRAVTRARKFNDPIKTTTFRMAVNCRHRLDPKVDKLYFGNLIQSIPTVASVGELLSHDLSWAANELHQNVVAHDNATVRRGVKDWENNPKLFPLGNFDGAMITMGSSPRFPMYNNDFGWGRPMAVRSGKANKFDGKISAFPGRDGDGSVDLEVVLAPETMACLERDHEFMQYVS
B2: HuAAT14: BAHD alcohol acyltransferase from Helichrysum umbraculigerum, recombinantly expressed in E. coli, SEQ ID NO: 30 (protein, listed as Helichrysum umbraculigerum)
chain: MGTIYQSPMIKSSTPKIIEDLKVIIHDTFTIFPPHETEKRSMFLSNIDQVLTFNVETVHFFAANPDFPPQVVAEKLKLALSKALVPYDFLAGRLKLNHESQRFEFDCNGAGARFVVGSSEFELGEIGDLVYPNPGFRQLVQKSYDNLELHEKPLCILQLTSFKCGGFALGVATNHATFDGLSFKTFLQNLGSLAADQPLAVDPCNDRHLLAARSPPKVQFDHPELLKIPTGTDIPNPTVFDCPESQLDFKIFNLTSDDIAHLKTKAKDGPGSTNAKITGFNVVAAHVWRCKALSSGSEYDPERVSTVLYAVDIRSRLNLPLSLAGNAVLSAYASAKCKEIEEGPLSRLVEMVTEGTNRMTGEYARSVIDWGEVNKGFPNGEFLISSWWRLGFADVEYPWGKPRYSCPVVYHRKDIILLFPDIVGADNNNEVNVLVALPGKEMEKFETLFHKFLA

Legend:
HuAAT5 = experiment: AAT enzyme assay with the purified HuAAT5 enzyme; format: biochemical, Helichrysum umbraculigerum; conditions: acyl donors acetyl-, iso-butyryl-, iso-valeryl- or hexanoyl-CoA, 30° C., 3 h, pH 7.4
Protocol: (§1) Selected AAT genes from Helichrysum were individually cloned into the pET28b vector and expressed in E. coli BL21 (DE3) cells. Bacterial cells were grown overnight in LB medium at 37° C., diluted in fresh LB 1:100, and re-incubated at 37° C. When cultures reached A600=0.6, protein expression was induced with 400 μM of isopropyl-1-thio-β-d-galactopyranoside (IPTG) overnight at 15° C. Bacterial cells were lysed by sonication in 50 mM Tris-HCl pH 8, 0.5 mM phenylmethylsulfonyl fluoride (PMSF, Sigma Aldrich) solution in isopropanol, 10% glycerol and protease inhibitor cocktail (Sigma Aldrich), and 1 mg ml-1 lysozyme (Sigma Aldrich). The whole-cell extract was either kept for functional activity or used for protein purification. Purification of proteins was performed on Ni-NTA agarose beads (Adar Biotech). The proteins were eluted with 200 mM imidazole (Fluka) in a buffer containing 50 mM NaH2PO4, pH 8, and 0.5 M NaCl. Protein concentration of the eluted fractions was measured with Pierce™ 660 nm protein assay reagent (Thermo Scientific).
(§2) Recombinant AAT assays with the enzyme solutions using different donor and acceptor substrates were performed by mixing 7 μl of the cannabinoid acceptors (OA, CBGA, or heliCBGA, 1 mg ml^−1) with 58 μl of a potassium phosphate buffer (100 mM, pH 7.4) and incubating the mixture at 30° C. for 10 min. Next, 5 μl of the acyl-CoA donors (butyryl-CoA, hexanoyl-CoA, iso-valeryl-CoA, or acetyl-CoA, 10 mM) and 30 μl of the enzyme solutions were added. The reactions were incubated at 30° C. for 3 h. To stop the reactions, 100 μl ethanol was added to each tube, vortexed for 10 s, centrifuged at maximum speed for 10 min, and then the supernatant was recovered and used for UPLC-qTOF analysis. The assay with the purified HuAAT5 enzyme was performed by mixing 2 μl of the cannabinoid acceptors (OA, CBGA, heliCBGA, CBDA, Δ^9-THCA or CBCA) with 2 μl of the acyl-CoA donors (butyryl-CoA, iso-butyryl-CoA, hexanoyl-CoA, iso-valeryl-CoA, or acetyl-CoA, 10 mM), 44 μl of a potassium phosphate buffer (100 mM, pH 7.4), and 2 μl of the purified HuAAT5 enzyme solution. The reactions were incubated at 30° C. for 3 h. To stop the reactions, 50 μl ethanol was added to each tube and the acylated compounds were extracted and analyzed as previously described.

TRPV3 ion channel = target: T1, TRPV3 ion channel (Homo sapiens, UniProt Q8NET8); conditions: cited from earlier work
T1 sequence (Q8NET8 1-790): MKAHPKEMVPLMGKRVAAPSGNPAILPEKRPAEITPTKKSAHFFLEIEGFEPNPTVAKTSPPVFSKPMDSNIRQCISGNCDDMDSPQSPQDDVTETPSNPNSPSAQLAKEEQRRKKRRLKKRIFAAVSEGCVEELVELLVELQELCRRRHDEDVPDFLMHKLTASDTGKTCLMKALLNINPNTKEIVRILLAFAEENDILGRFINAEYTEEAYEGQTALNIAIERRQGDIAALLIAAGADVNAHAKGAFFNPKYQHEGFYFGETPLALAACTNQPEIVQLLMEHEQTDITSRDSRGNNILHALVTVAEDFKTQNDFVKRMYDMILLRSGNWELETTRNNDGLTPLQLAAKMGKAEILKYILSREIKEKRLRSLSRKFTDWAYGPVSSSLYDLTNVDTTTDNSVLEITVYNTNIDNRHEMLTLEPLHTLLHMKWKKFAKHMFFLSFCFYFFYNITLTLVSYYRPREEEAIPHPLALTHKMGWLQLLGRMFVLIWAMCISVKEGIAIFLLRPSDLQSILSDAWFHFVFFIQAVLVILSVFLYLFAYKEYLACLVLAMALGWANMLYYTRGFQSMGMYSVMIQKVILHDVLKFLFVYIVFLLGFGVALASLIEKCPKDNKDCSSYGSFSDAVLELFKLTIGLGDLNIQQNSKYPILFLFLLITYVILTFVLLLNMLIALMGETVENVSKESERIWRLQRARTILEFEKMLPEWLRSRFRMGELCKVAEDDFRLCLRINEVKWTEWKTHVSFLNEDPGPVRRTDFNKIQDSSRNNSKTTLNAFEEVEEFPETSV

[1] = Activity of E. coli lysates containing recombinant HuAATs (AAT enzyme assay, UPLC-qTOF readout); format: biochemical, Helichrysum umbraculigerum; conditions: for acyltransferase activity of lysate towards the substrates: butyryl-CoA and hexanoyl-CoA as acyl donors, CBGA and heliCBGA as acceptors, 30° C., 3 h
Protocol: as §1
as §2, with “The assay with the purified HuAAT5 enzyme was performed by mixing 2 μl of the cannabinoid acceptors (OA, CBGA, heliCBGA, CBDA, Δ^9-THCA or CBCA) with 2 μl of the acyl-CoA donors (butyryl-CoA, iso-butyryl-CoA, hexanoyl-CoA, iso-valeryl-CoA, or acetyl-CoA, 10 mM), 44 μl of a potassium phosphate buffer (100 mM, pH 7.4), and 2 μl of the purified HuAAT5 enzyme solution. The reactions were incubated at 30° C. for 3 h.” left out

| Molecule | acylation of the cannabinoid acceptor by purified HuAAT5 (HuAAT5) | other results |
| --- | --- | --- |
| CCCCCc1cc2c(c(O)c1C(=O)O)C=CC(C)(CCC=C(C)C)O2 (stereo not shown) [CBCA, cannabichromenic acid] | inactive |  |
| C=C(C)[C@@H]1CCC(C)=C[C@H]1c1c(O)cc(CCCCC)c(C(=O)O)c1O [CBDA, cannabidiolic acid] | successfully acylated |  |
| CCCCCc1cc(O)c(C/C=C(\C)CCC=C(C)C)c(O)c1C(=O)O [CBGA, cannabigerolic acid] | successfully acylated |  |
| CCCCCc1cc(O)cc(O)c1C(=O)O [OA, Olivetolic acid] | successfully acylated |  |
| CCC(C)C(=O)Oc1cc(CCc2ccccc2)cc(O)c1CC=C(C)C (stereo not shown) [O-methylbutyryl deprenylhelycannabigenol] |  | affinity for the ionotropic TRPV3 ion channel (TRPV3 ion channel): sub-micromolar |
| CCCCCc1cc2c(c(O)c1C(=O)O)[C@@H]1C=C(C)CC[C@H]1C(C)(C)O2 (relative stereo) [Δ^9-THCA, (−)-trans-Δ^9-tetrahydrocannabinolic acid] | inactive |  |
| CC(C)=CCCC(C)=CCc1c(O)cc(CCc2ccccc2)c(C(=O)O)c1O [heliCBGA, helicannabigerolic acid] | successfully acylated |  |
| B1 |  | amounts of products catalyzed, compared between the two active enzymes ([1]; HuAAT5 versus HuAAT14): considerably greater amounts of products; acyltransferase activity of lysate towards the substrates [1]: showed activity towards all of these substrates; also recorded: acylated the cannabinoids with both acyl-CoAs |
| B2 |  | acyltransferase activity of lysate towards the substrates [1]: showed activity towards all of these substrates; also recorded: acylated the cannabinoids with both acyl-CoAs |
